# In PMC7016953 (Cells, 2020):
# What was measured:
# hTRPC6-YFP = tested on: T1, hTRPC6-YFP; test: Fluo-4 Ca2+ influx assay in HEK293 cells stably expressing TRPC6; type: cell-based, human; conditions: for effect on TRPC6: fluo-4 concentration response analysis
# T1 construct: expressed in transfected cells
# TRPC3 = target: T2, TRPC3 (Homo sapiens, UniProt Q13507); test: Outside-out patch recordings from HEK TRPC3-YFP cells; type: cell-based; conditions: 50 µM, outside-out patches, −100 mV, n = 6
# T2 construct: expressed in transfected cells
# T2 sequence (Q13507 1-848 isoform Q13507-3): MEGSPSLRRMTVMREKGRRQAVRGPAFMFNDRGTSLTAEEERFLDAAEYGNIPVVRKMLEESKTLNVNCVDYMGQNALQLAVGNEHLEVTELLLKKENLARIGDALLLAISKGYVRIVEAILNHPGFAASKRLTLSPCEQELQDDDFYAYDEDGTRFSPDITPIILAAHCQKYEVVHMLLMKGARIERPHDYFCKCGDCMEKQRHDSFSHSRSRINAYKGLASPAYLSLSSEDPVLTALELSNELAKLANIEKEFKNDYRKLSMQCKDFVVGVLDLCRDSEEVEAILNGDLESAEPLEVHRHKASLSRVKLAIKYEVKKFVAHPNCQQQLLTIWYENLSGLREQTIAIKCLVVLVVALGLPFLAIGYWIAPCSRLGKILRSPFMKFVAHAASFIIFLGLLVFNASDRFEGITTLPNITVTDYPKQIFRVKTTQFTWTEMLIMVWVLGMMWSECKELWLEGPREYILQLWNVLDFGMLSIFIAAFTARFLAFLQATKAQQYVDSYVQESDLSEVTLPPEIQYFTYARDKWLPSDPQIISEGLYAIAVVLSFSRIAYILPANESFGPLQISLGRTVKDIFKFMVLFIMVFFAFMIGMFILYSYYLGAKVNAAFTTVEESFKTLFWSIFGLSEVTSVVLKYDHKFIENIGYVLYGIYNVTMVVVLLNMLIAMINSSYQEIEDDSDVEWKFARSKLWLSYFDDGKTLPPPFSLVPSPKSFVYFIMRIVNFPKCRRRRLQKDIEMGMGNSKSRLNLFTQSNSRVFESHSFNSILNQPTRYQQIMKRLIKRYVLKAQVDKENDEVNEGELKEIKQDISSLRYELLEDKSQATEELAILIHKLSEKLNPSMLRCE
# Method: The recordings of TRPC3, TRPC6, or TRPC7 membrane currents in HEK293 or PC12 cells were realized by using a Multiclamp 700B amplifier with a Digidata 1440A digitizer controlled by the PClamp 10 software (all Molecular Devices, Sunnyvale, CA, U.S.A.). Recordings were obtained at room temperature either in the whole-cell or in an outside-out configuration as indicated. Cells were seeded as described above, but at lower density, mounted in a chamber (Warner Instruments, Hamden, CT; U.S.A.), placed onto the stage of an inverted microscope, and perfused with required solution. The standard extracellular solution contained 140 mM NaCl, 5 mM CsCl, 2 mM MgCl2, 1 mM CaCl2, 10 mM HEPES, and 0.035% BSA adjusted to pH 7.4 with NaOH. The composition of standard intracellular solution was 140 mM CsCl, 1 mM MgCl2, 5 mM EGTA, and 10 mM HEPES adjusted to pH 7.25 with CsOH; the osmolarity was 295 mOsm l^−1. In outside-out measurements, the pipette solution contained 5 mM EGTA and 1.1 mM CaCl2 to achieve a calculated free Ca^2+ concentration of 100 nM. […]
# Outside-out patches were obtained from HEKTRPC3-YFP cells, and ionic currents were continuously recorded at a patch potential of –100 mV. […] (B) The open probability (Po) for the unknown number N of channels in the patch of the experiment shown in (A) was calculated over 2 s bins and plotted at the same time scale.
# TRPC7 = tested on: T3, TRPC7; test: Whole-cell patch-clamp recordings in HEK TRPC7-YFP cells; type: cell-based, human; conditions: 100 µM artemisinin
# T3 construct: expressed in transfected cells
# Method: The recordings of TRPC3, TRPC6, or TRPC7 membrane currents in HEK293 or PC12 cells were realized by using a Multiclamp 700B amplifier with a Digidata 1440A digitizer controlled by the PClamp 10 software (all Molecular Devices, Sunnyvale, CA, U.S.A.). Recordings were obtained at room temperature either in the whole-cell or in an outside-out configuration as indicated. Cells were seeded as described above, but at lower density, mounted in a chamber (Warner Instruments, Hamden, CT; U.S.A.), placed onto the stage of an inverted microscope, and perfused with required solution. The standard extracellular solution contained 140 mM NaCl, 5 mM CsCl, 2 mM MgCl2, 1 mM CaCl2, 10 mM HEPES, and 0.035% BSA adjusted to pH 7.4 with NaOH. The composition of standard intracellular solution was 140 mM CsCl, 1 mM MgCl2, 5 mM EGTA, and 10 mM HEPES adjusted to pH 7.25 with CsOH; the osmolarity was 295 mOsm l^−1. In outside-out measurements, the pipette solution contained 5 mM EGTA and 1.1 mM CaCl2 to achieve a calculated free Ca^2+ concentration of 100 nM.
# Patch pipettes were pulled from borosilicate glass capillaries BG150F-8P (Science Products, Hofheim, Germany) with a PIP6 pipette puller (HEKA Elektronik, Lambrecht, Germany). […] In all whole-cell measurements, the series resistance was lower than 13 MΩ, and compensated by 70%. […]
smiles,measurement,setting,value
C[C@@H]1CC[C@H]2[C@@H](C)C(=O)O[C@@H]3O[C@@]4(C)CC[C@@H]1[C@]32OO4 [artemisinin],effect on TRPC6,hTRPC6-YFP,"marked preference to activate TRPC3, but not the closely related TRPC6 channel"
same,effect on TRPC6,hTRPC6-YFP; listed as Artemisinin,rather inhibits TRPC6
same,signal in counterscreen with TRPC6-expressing cells,"hTRPC6-YFP; primary screen, 20 µM",no signals
same,increase in the open probability,TRPC3,about 5.5 fold
same,ionic currents in TRPC7-expressing HEK cells,TRPC7,only weakly enhanced
